Test results as given in patent US4680389A, “Temperature stable crystalline di(1-methyl-2-pyrralidinone) and di(N-formylpyrrolidine) adducts of cephalosporin derivatives” (priority 1986, dated 1987).

Legend:
[1] = Stabilities at elevated temperatures (percent potency loss by HPLC, dry containers); format: physicochemical
Protocol: Elevated temperature stabilities were determined by storing the preparations in dry containers (1 dram screw cap vials) at temperatures and for time periods as denoted below. Potency losses or gains were determined by HPLC. […] Each compound form tested was prepared in accordance with the example which is designated.

[2] = Toxicity data (LD50) in rat; format: in vivo; conditions: in vivo, route not stated
Protocol: (§1) Toxicity data (LD50) was determined for the following compounds which are utilized in the instant invention or prepared according to the instant invention.

Rat = assay: Toxicity data (LD50) in rat; format: in vivo; conditions: route not stated
Protocol: as §1

[3] = Stability in aqueous solution; format: physicochemical; conditions: 250 mg/ml aqueous solution, ambient pH 4 to 5, at least six hours at 25° C.; 360 min
Source text: These crystalline adducts display acceptable stability when they are placed in solution.

[4] = HPLC stability of Example 1 di(1-methyl-2-pyrrolidinone) adduct at 70° C.; format: physicochemical
Protocol: 1.0 g of the sulfuric acid addition salt of the zwitterion is vigorously slurried in 10 ml of 1-methyl-2-pyrrolidinone (NMP-2) at 25° C.-45° C. The crystalline mass is mixed with 0.49 ml (2.02 molar equivalents) of triethylamine (TEA) over a period of 0.5 to 1.5 hours. The mixture is seeded with 1-methyl-2-pyrrolidinone adduct and vigorously stirred for 6 to 24 hours. The crystals are then separated by vacuum filtration, washed with two 3 ml portions of 1-methyl-2-pyrrolidinone, two 5 ml portions of ether and vacuum dried at 45° to 55° C. for 2 hours.

[5] = elevated temperatures (e.g. 45° C. and above), one week, dry powder; 10080 min; cited from earlier work
various organisms = conditions: cited from earlier work

SMILES: CO/N=C(\C(=O)NC1C(=O)N2C(C(=O)[O-])=C(C[N+]3(C)CCCC3)CSC12)c1csc(N)n1 (centres unmarked) [Zwitterion (Crystalline), 7-[(Z)-2-methoxyimino-2-(2-aminothiazol-4-yl)acetamido]-3-[(1-methyl-1-pyrrolidinium)methyl]-3-cephem-4-carboxylate]
- temperature stability of crystalline vs amorphous form [1]: more temperature stable than the amorphous form
- PERCENT LOSS ([1]; 37° C., 1 month, 43200 min): 20.0%
- PERCENT LOSS ([1]; 45° C., 1 week, 10080 min): 14.2%
- PERCENT LOSS ([1]; 56° C., 1 week, 10080 min): 25.6%
- PERCENT LOSS ([1]; 56° C., 2 weeks, 20160 min): 30.0%
- PERCENT LOSS ([1]; 70° C., 2 days, 2880 min): 13.5%
- PERCENT LOSS ([1]; 70° C., 3 days, 4320 min): 20.5%
- degraded at 336 h ([1]; dry solid, 45° C., 2 weeks): 23%

SMILES: O=CN1CCCC1 [N--Formyl pyrrolidine, N-formyl pyrrolidine]
- LD50 [2]: > 500 mg/kg
- Rat LD50 (Rat): < 1000 mg/kg

SMILES: CN1CCCC1=O [1-Methyl-2-pyrrolidinone, 1-methyl-2-pyrrolidinone]
- LD50 [2]: > 2000 mg/kg
- Rat LD50 (Rat): < 2500 mg/kg

SMILES: CO/N=C(\C(=O)NC1C(=O)N2C(C(=O)[O-])=C(C[N+]3(C)CCCC3)CSC12)c1csc(N)n1 (centres unmarked)
- Rat LD50 (Rat; listed as Di(N--formyl pyrrolidine) adduct): 495 mg/kg
- PERCENT LOSS ([1]; 37° C., 1 month, 43200 min, listed as Di(NFP) Adduct): 0%
- PERCENT LOSS ([1]; 45° C., 1 week, 10080 min, listed as Di(NFP) Adduct): 0-3%
- PERCENT LOSS ([1]; 45° C., 4 weeks, 40320 min, listed as Di(NFP) Adduct): 3.5-5.9%
- PERCENT LOSS ([1]; 56° C., 1 week, 10080 min, listed as Di(NFP) Adduct): 7.1%
- PERCENT LOSS ([1]; 56° C., 2 weeks, 20160 min, listed as Di(NFP) Adduct): 9.3%
- PERCENT LOSS ([1]; 70° C., 1 day, listed as Di(NFP) Adduct, 1440 min): 1.5%
- PERCENT LOSS ([1]; 70° C., 3 days, listed as Di(NFP) Adduct, 4320 min): 0-4.4%
- degraded at 672 h ([1]; dry solid, 56° C., 4 weeks): 18.1%

SMILES: CN1CCCC1=O.CN1CCCC1=O.CO/N=C(\C(=O)NC1C(=O)N2C(C(=O)[O-])=C(C[N+]3(C)CCCC3)CSC12)c1csc(N)n1 (centres unmarked) [Di(1-methyl-2-pyrrolidinone) adduct, di(1-methyl-2-pyrrolidinone) adduct of 7-[(Z)-2-methoxyimino-2-(2-aminothiazol-4-yl)acetamido-]3-[(1-methyl-1-pyrrolidinium)methyl]-3-cephem-4-carboxylate]
- Rat LD50 (Rat): 663 mg/kg
- potency loss in aqueous solution [3]: less than 10%
- PERCENT LOSS ([1]; 37° C., 3 months, 129600 min): 1.2%
- PERCENT LOSS ([1]; 45° C., 4 weeks, 40320 min): 1.6%
- PERCENT LOSS ([1]; 45° C., 6 weeks, 60480 min): 3.0%
- PERCENT LOSS ([1]; 45° C., 8 weeks, 80640 min): 0-3%
- PERCENT LOSS ([1]; 56° C., 1 week, 10080 min): 2.1%
- PERCENT LOSS ([1]; 56° C., 2 weeks, 20160 min): 3.4%
- PERCENT LOSS ([1]; 56° C., 4 weeks, 40320 min): 4.2%
- PERCENT LOSS ([1]; 56° C., 6 weeks, 60480 min): 7.0%
- PERCENT LOSS ([1]; 56° C., 8 weeks, 80640 min): 0.9%
- PERCENT LOSS ([1]; 70° C., 1 day): 0%
- PERCENT LOSS ([1]; 70° C., 2 days): 2.1%
- PERCENT LOSS ([1]; 70° C., 3 days): 2.1%
- PERCENT LOSS ([1]; 70° C., 5 days): 2.1%
- PERCENT LOSS ([1]; 100° C., 1 day): 13-16%
- HPLC Stability % Loss ([4]; 1 Day): 0-2.3%
- HPLC Stability % Loss ([4]; 3 Days): 5-6.5%

SMILES: CO/N=C(\C(=O)NC1C(=O)N2C(C(=O)[O-])=C(C[N+]3(C)CCCC3)CSC12)c1csc(N)n1 (centres unmarked) [Zwitterion (Amorphous), 7-[(Z)-2-methoxyimino-2-(2-aminothiazol-4-yl)acetamido]-3-[(1-methyl-1-pyrrolidinium)methyl]-3-cephem-4-carboxylate, reference compound]
- PERCENT LOSS ([1]; 45° C., 1 week, 10080 min): 34.1%
- PERCENT LOSS ([1]; 45° C., 4 weeks, 40320 min): 71%
- PERCENT LOSS ([1]; 56° C., 1 week, 10080 min): 49.6%
- PERCENT LOSS ([1]; 70° C., 1 day, 1440 min): 34.5%
- PERCENT LOSS ([1]; 70° C., 2 days, 2880 min): 46.2%
- PERCENT LOSS ([1]; 70° C., 3 days, 4320 min): 55.2%
- degraded at 24 h ([1]; dry solid, 100° C., 1 day): 100%

SMILES: CO/N=C(\C(=O)NC1C(=O)N2C(C(=O)[O-])=C(C[N+]3(C)CCCC3)CSC12)c1csc(N)n1 (centres unmarked) [Zwitterion, 7-[(Z)-2-methoxyimino-2-(2-aminothiazol-4-yl)acetamido]-3-[(1-methyl-1-pyrrolidinium)methyl]-3-cephem-4-carboxylate]
- LD50 [2]: 665 mg/kg
- loss of activity on storage [5]: ≥ 30%
- utility against various organisms (various organisms; data in U.S. Pat. No. 4,406,899): broad spectrum utility against various organisms
- spectrum of activity compared with ceftazidime and cefotaxime (various organisms; zwitterion form vs ceftazidime and cefotaxime): broader spectrum activity than ceftazidime and cefotaxime
